Source: patent US20260199323A1, “LIGAND COMPOUNDS FOR E3 UBIQUITIN LIGASE, PROTEIN DEGRADERS DEVELOPED ON BASIS OF LIGAND COMPOUNDS, AND USES THEREOF” (GLUETACS THERAPEUTICS (SHANGHAI) CO., LTD., priority 2021, published 2026)
Read-outs that look alike come from different tables or passages of the source.

Assays:
[1] = tested on: CCRF-CEM; test: CCK-8 tumor cell proliferation, CCRF-CEM; type: cell-based, Human; set-up: IC50 for inhibiting the proliferation of tumor cells, CCRF-CEM: scale not given here; conditions: for IC50: Homo sapiens, Table 18, FAK inhibitor based, CCRF-CEM, read-out: IC50 inhibiting proliferation of tumor cells, CCRF-CEM; for IC50 for inhibiting the proliferation of tumor cells, CCRF-CEM: Table 7, designed based on BTK inhibitors, 96 h
Summary of the method: (§1)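 Proliferation was measured by CCK-8. Plated cells received compound 24 h later at ten 5-fold dilutions beginning at 10 μM.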

[2] = tested on: CAL-62; test: CCK-8 tumor cell proliferation, CAL-62; type: cell-based, Human; conditions: Homo sapiens, CAL-62
Summary of the method: as §1

[3] = tested on: SW620; test: CCK-8 tumor cell proliferation, SW620; type: cell-based, Human; conditions: Homo sapiens, SW-620; Table 18, FAK inhibitor based; SW620; read-out: IC50 inhibiting proliferation of tumor cells, SW620
Summary of the method: as §1

[4] = tested on: Hep3B2.7-1; test: CCK-8 tumor cell proliferation, Hep3B2.7-1; type: cell-based, Human; conditions: Homo sapiens; Table 18, FAK inhibitor based; HEP3B2.7-1; read-out: IC50 inhibiting proliferation of tumor cells, HEP3B2.7-1
Summary of the method: as §1

[5] = tested on: Vcap; test: CCK-8 tumor cell proliferation, Vcap; type: cell-based, Human; conditions: for IC50: Homo sapiens, VCaP, Table 18, FAK inhibitor based, Vcap, read-out: IC50 inhibiting proliferation of tumor cells, Vcap; for IC50 for inhibiting the proliferation of tumor cells, Vcap: Table 7, designed based on BTK inhibitors, 96 h
Summary of the method: as §1

[6] = tested on: MM.1S; test: CCK-8 tumor cell proliferation, MM.1S; type: cell-based; conditions: for IC50: Homo sapiens, MM1.S, Table 18, FAK inhibitor based, MM.1S, read-out: IC50 inhibiting proliferation of tumor cells, MM.1S; for IC50 for inhibiting the proliferation of tumor cells, MM.1S: Table 7, designed based on BTK inhibitors, 72 h
Summary of the method: as §1

[7] = tested on: MGC-803; test: CCK-8 tumor cell proliferation, MGC-803; conditions: Homo sapiens, Table 18, FAK inhibitor based, MGC803, read-out: IC50 inhibiting proliferation of tumor cells, MGC803
Method: (§2) The tumor cells used herein were cultured in a cell culture medium listed in table 4 at 37° C. in an incubator with 5% CO2. Prior to experimentation, all cells used were correctly identified by STR profiling, and tested negative for mycoplasma through routine screenings.
(§3) IC50 values of the compounds of the present disclosure (including the compounds in Tables 1 and 3, and compounds of examples) were measured using the Meilun Cell Counting Kit-8 kit from Dalian Meilun Biotech Co., Ltd. Assay details are as follows: tumor cells were seeded in a 96-well plate at a density listed in Table 5. After 24 h, 100 μL of the inoculated cells were treated with 0.5 μL of the compounds of the present disclosure (including the compounds in Tables 1 and 3, and compounds of examples) at 10 different successively decreasing concentrations (starting at the highest concentration of 10 μM; 5-fold serial dilutions). After the cells were treated with the compounds of the present disclosure for a period of time, the cell viability detection reagent was added to the culture medium for cell viability assessment according to the instructions provided with the CCK-8 kit. […] The growth inhibition of the compounds of the present disclosure on cells was plotted by Prism Graphpad software, and the IC50 values of the compounds of the present disclosure were calculated therefrom.

[8] = tested on: JEKO-1; test: CCK-8 tumor cell proliferation, JEKO-1; set-up: species or system Human; conditions: Table 7, designed based on BTK inhibitors; 96 h
Method: as §2, §3

[9] = tested on: 22RV1; test: CCK-8 tumor cell proliferation, 22RV1; set-up: species or system Human; conditions: Table 7, designed based on BTK inhibitors; 96 h
Method: as §2, §3

[10] = tested on: Mino; test: CCK-8 tumor cell proliferation, Mino; type: cell-based, Human; conditions: Table 7, designed based on BTK inhibitors; 72 h
Summary of the method: as §1

[11] = tested on: MDA-MB-231; test: CCK-8 tumor cell proliferation, MDA-MB-231; type: cell-based, Human; set-up: IC50 for inhibiting the proliferation of tumor cells, MDA-MB-231: scale not given here; conditions: Table 7, designed based on BTK inhibitors; 96 h
Summary of the method: as §1

[12] = tested on: NCI-H1975; test: CCK-8 tumor cell proliferation, NCI-H1975; type: cell-based, Human; conditions: Table 7, designed based on BTK inhibitors; 96 h
Summary of the method: as §1

[13] = tested on: THP-1; test: CCK-8 tumor cell proliferation, THP-1; type: cell-based, Human; conditions: Table 7, designed based on BTK inhibitors; 72 h
Method: as §2, §3

[14] = tested on: MV-4-11; test: CCK-8 tumor cell proliferation, MV-4-11; type: cell-based, Human; conditions: Table 7, designed based on BTK inhibitors; 72 h
Summary of the method: as §1

[15] = tested on: Kasumi-1; test: CCK-8 tumor cell proliferation, Kasumi-1; type: cell-based, Human; conditions: Table 7, designed based on BTK inhibitors; 72 h
Summary of the method: as §1

[16] = tested on: MM.1R; test: CCK-8 tumor cell proliferation, MM.1R; type: cell-based; conditions: Table 23, compared to Comparative Example compounds, read-out: Inhibitory activity (IC50, nM) against tumor cell proliferation, MM.1R
Summary of the method: as §1

[17] = tested on: Jurkat; test: CCK-8 tumor cell proliferation, Jurkat; type: cell-based, Human; conditions: Homo sapiens, Table 23, compared to Comparative Example compounds, read-out: Inhibitory activity (IC50, nM) against tumor cell proliferation, Jurkat
Summary of the method: as §1

[18] = Table 18, FAK inhibitor based, read-out: IC50 inhibiting proliferation of tumor cells, CAL-62

| Structure (SMILES) | IC50 [2, 18] [nM] | IC50 [3] [nM] | IC50 [5] [nM] | IC50 [7] [nM] | IC50 for inhibiting the proliferation of tumor cells, JEKO-1 [8] | IC50 for inhibiting the proliferation of tumor cells, 22RV1 [9] | IC50 for inhibiting the proliferation of tumor cells, Mino [10] | IC50 for inhibiting the proliferation of tumor cells, MDA-MB-231 [11] | IC50 for inhibiting the proliferation of tumor cells, MM.1S [6] | IC50 for inhibiting the proliferation of tumor cells, NCI-H1975 [12] | IC50 for inhibiting the proliferation of tumor cells, THP-1 [13] | IC50 for inhibiting the proliferation of tumor cells, Vcap [5] | IC50 for inhibiting the proliferation of tumor cells, Kasumi-1 [15] | other results |
| --- | --- | --- | --- | --- | --- | --- | --- | --- | --- | --- | --- | --- | --- | --- |
| CNC(=O)c1ccccc1Nc1cc(Nc2cc(C)c(C3CCN(Cc4ccc5c(c4F)CN(C4CCC(=O)NC4=O)C5=O)CC3)cc2OC(C)C)ncc1C(F)(F)F (centres unmarked) [GT-04079, 2-((2-((4-(1-((2-(2,6-dioxopiperidin-3-yl)-4-fluoro-1-oxoisoindolin-5-yl)methyl)piperidin-4-yl)-2-isopropoxy-5-methylphenyl)amino)-5-(trifluoromethyl)pyridin-4-yl)amino)-N-methylbenzamide] | < 50 | < 50 | < 50 | 100 to 500 |  |  |  |  |  |  |  |  |  | IC50 [1]: < 50 nM; IC50 [4]: < 50 nM; IC50 [6]: < 50 nM |
| Nc1ncnc2c1c(-c1ccc(Oc3ccccc3)cc1)nn2[C@@H]1CCN(Cc2ccc3c(c2)CN(C2CCC(=O)NC2=O)C3=O)C[C@H]1F (stereo partly drawn) [GT-03287, 3-(5-(((3R,4R)-4-(4-amino-3-(4-phenoxyphenyl)-1H-pyrazolo[3,4-d]pyrimidin-1-yl)-3-fluoropiperidin-1-yl)methyl)-1-oxoisoindolin-2-yl)piperidine-2,6-dione] |  |  |  |  | A+ | A+ | A+ | A+ | A+ |  |  |  |  |  |
| Nc1ncnc2c1c(-c1ccc(Oc3ccccc3)cc1)nn2[C@H]1CCN(Cc2ccc3c(c2)CN(C2CCC(=O)NC2=O)C3=O)C[C@H]1F (stereo partly drawn) [GT-03331, 3-(5-(((3R,4S)-4-(4-amino-3-(4-phenoxyphenyl)-1H-pyrazolo[3,4-d]pyrimidin-1-yl)-3-fluoropiperidin-1-yl)methyl)-1-oxoisoindolin-2-yl)piperidine-2,6-dione] |  |  |  |  | A+ | A+ | A+ | A+ | A+ | A+ | A+ | A+ | A+ | IC50 for inhibiting the proliferation of tumor cells, CCRF-CEM [1]: A+; IC50 for inhibiting the proliferation of tumor cells, MV-4-11 [14]: A+ |
| Nc1ncnc2c1c(-c1ccc(Oc3ccccc3)cc1)nn2[C@@H]1CCN(Cc2ccc3c(c2)CN(C2CCC(=O)NC2=O)C3=O)C[C@@H]1F (stereo partly drawn) [GT-03297, 3-(5-(((3S,4R)-4-(4-amino-3-(4-phenoxyphenyl)-1H-pyrazolo[3,4-d]pyrimidin-1-yl)-3-fluoropiperidin-1-yl)methyl)-1-oxoisoindolin-2-yl)piperidine-2,6-dione] |  |  |  |  | A+ | A+ |  | A+ | A+ | A+ | A+ | A+ | A+ | IC50 for inhibiting the proliferation of tumor cells, CCRF-CEM [1]: A+ |
| CNC(=O)c1ccccc1Nc1cc(Nc2cc(C)c(C3CCN(Cc4cc5c(cc4F)C(=O)N(C4CCC(=O)NC4=O)C5)CC3)cc2OC(C)C)ncc1C(F)(F)F (centres unmarked) [GT-04080, 2-((2-((4-(1-((2-(2,6-dioxopiperidin-3-yl)-6-fluoro-1-oxoisoindolin-5-yl)methyl)piperidin-4-yl)-2-isopropoxy-5-methylphenyl)amino)-5-(trifluoromethyl)pyridin-4-yl)amino)-N-methylbenzamide] | < 50 | < 50 | < 50 | 50 to 100 |  |  |  |  |  |  |  |  |  | IC50 [1]: < 50 nM; IC50 [4]: < 50 nM; IC50 [6]: < 50 nM |
| Nc1ncnc2c1c(-c1ccc(Oc3ccccc3)cc1)nn2[C@H]1CCN(Cc2ccc3c(c2)CN(C2CCC(=O)NC2=O)C3=O)C[C@@H]1F (stereo partly drawn) [GT-03264, 3-(5-(((3S,4S)-4-(4-amino-3-(4-phenoxyphenyl)-1H-pyrazolo[3,4-d]pyrimidin-1-yl)-3-fluoropiperidin-1-yl)methyl)-1-oxoisoindolin-2-yl)piperidine-2,6-dione] |  |  |  |  | A+ | A+ | A+ | A+ | A+ | A+ |  |  |  |  |
| Nc1ncnc2c1c(-c1ccc(Oc3ccccc3)cc1)nn2C1CCN(Cc2ccc3c(c2)CN(C2CCC(=O)NC2=O)C3=O)CC1 (centres unmarked) [GT-02742, 3-(5-((4-(4-amino-3-(4-phenoxyphenyl)-1H-pyrazolo[3,4-d]pyrimidin-1-yl)piperidin-1-yl)methyl)-1-oxoisoindolin-2-yl)piperidine-2,6-dione] |  |  |  |  | A+ | A+ | A+ | A+ | A+ | A+ | A+ | A+ | A+ | IC50 ([2]; Table 23, compared to Comparative Example compounds, read-out: Inhibitory activity (IC50, nM) against tumor cell proliferation, CAL-62): < 50 nM; IC50 [16]: < 50 nM; IC50 [17]: < 50 nM; IC50 for inhibiting the proliferation of tumor cells, MV-4-11 [14]: A+ |
| CNC(=O)c1ccccc1Nc1cc(Nc2cc(C)c(N3CCN(Cc4cc5c(cc4F)C(=O)N(C4CCC(=O)NC4=O)C5)CC3)cc2OC(C)C)ncc1C(F)(F)F (centres unmarked) [GT-03942, 2-((2-((4-(4-((2-(2,6-dioxopiperidin-3-yl)-6-fluoro-1-oxoisoindolin-5-yl)methyl)piperazin-1-yl)-2-isopropoxy-5-methylphenyl)amino)-5-(trifluoromethyl)pyridin-4-yl)amino)-N-methylbenzamide] | < 50 | < 50 | < 50 | < 50 |  |  |  |  |  |  |  |  |  |  |
